Values joined by “and” are separate entries in the source; they are usually repeats but may differ in a detail not shown here. Equal values may be shown once.
Key:
[1] = system: S. epidermidis ST20140436; experiment: MIC by microdilution, S. epidermidis ST20140436; format: cell-based, Staphylococcus epidermidis; settings: S. epidermidis ST20140436 (MecA positive, glycopeptide resistant), in duplicate
Procedure, shortened: (§1)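 Broth microdilution per CLSI document M07-A10, Mueller-Hinton medium, each MIC run in duplicate. Strains include E. coli ATCC25922 (wild-type), S. epidermidis ATCC35984 (MecA positive) and S. aureus ATCC700699 (MecA positive, glycopeptide resistant), within a mixed panel of susceptible and resistant Gram-positive/Gram-negative bacteria.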

[2] = system: panel of Gram-positive and Gram-negative strains; experiment: Antibacterial profile on the selected panel of strains; format: cell-based; settings: summary of Tables 1-12
Procedure, shortened: (§2)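 Broth microdilution per CLSI (M07-A10) in Mueller-Hinton broth, run in duplicate; MIC recorded as minimal inhibitory concentration. Panel spans wild-type to multidrug-resistant strains, e.g. S. aureus ATCC700699 (MecA+, glycopeptide resistant), S. epidermidis ATCC35984 (MecA+), E. coli ATCC25922 (wild-type).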

[3] = system: E. faecium BM4147; experiment: MIC by microdilution, E. faecium BM4147; format: cell-based, Enterococcus faecium; set-up: unit not given here; settings: E. faecium BM4147 (VanA positive, glycopeptide resistant), in duplicate
Procedure, shortened: as §1

[4] = system: S. epidermidis ATCC14990; experiment: MIC by microdilution, S. epidermidis ATCC14990; format: cell-based, Staphylococcus epidermidis; settings: S. epidermidis ATCC14990 (MecA negative, wild-type), in duplicate
Procedure, shortened: as §2

[5] = system: E. coli ATCC25922; experiment: MIC by microdilution, E. coli ATCC25922; format: cell-based, Escherichia coli; settings: E. coli ATCC25922 (wild-type), in duplicate
Procedure, shortened: as §2

[6] = system: Clostridium difficile ATCC700057; experiment: MIC by microdilution, Clostridium difficile; format: cell-based; settings: strain ATCC70057 [sic] (Tables 1-2) / ATCC700057 (Tables 3-10), in duplicate
[7] = system: E. faecium AUS0004; experiment: MIC by microdilution, E. faecium AUS0004; format: cell-based, Enterococcus faecium; settings: E. faecium AUS0004 (VanB positive, glycopeptide resistant), in duplicate
Procedure, shortened: as §1

[8] = system: E. faecalis V583; experiment: MIC by microdilution, E. faecalis V583; format: cell-based, Enterococcus faecalis; settings: E. faecalis V583 (VanB positive, glycopeptide resistant), in duplicate
Procedure, shortened: as §2

[9] = system: E. faecium ATCC19434T; experiment: MIC by microdilution, E. faecium ATCC19434T; format: cell-based, Enterococcus faecium; set-up: unit not given here; settings: E. faecium ATCC19434T (wild-type), in duplicate
Procedure, shortened: as §1

[10] = system: S. epidermidis ST20150446; experiment: MIC by microdilution, S. epidermidis ST20150446; format: cell-based, Staphylococcus epidermidis; settings: S. epidermidis ST20150446 (MecA positive, glycopeptide resistant), in duplicate
Procedure, shortened: as §1

[11] = system: S. epidermidis ATCC35984; experiment: MIC by microdilution, S. epidermidis ATCC35984; format: cell-based, Staphylococcus epidermidis; settings: S. epidermidis ATCC35984 (MecA positive), in duplicate
Procedure, shortened: as §2

[12] = system: S. aureus ST20131365; experiment: MIC by microdilution, S. aureus ST20131365; format: cell-based, Staphylococcus aureus; settings: S. aureus ST20131365 (MecA positive, glycopeptide resistant), in duplicate
Procedure, shortened: as §2

[13] = system: E. faecalis JH2-2; experiment: MIC by microdilution, E. faecalis JH2-2; format: cell-based, Enterococcus faecalis; set-up: unit not given here; settings: E. faecalis JH2-2 (wild-type), in duplicate
Procedure, shortened: as §1

[14] = system: S. aureus ATCC25923; experiment: MIC by microdilution, S. aureus ATCC25923; format: cell-based, Staphylococcus aureus; settings: S. aureus ATCC25923 (MecA negative, wild-type), Mueller-Hinton broth, in duplicate
Procedure, shortened: as §1

[15] = system: S. aureus ATCC700699; experiment: MIC by microdilution, S. aureus ATCC700699; format: cell-based, Staphylococcus aureus; set-up: unit not given here; settings: S. aureus ATCC700699 (MecA positive, glycopeptide resistant), in duplicate
Procedure, shortened: as §2

[16] = system: E. faecalis UCN41; experiment: MIC by microdilution, E. faecalis UCN41; format: cell-based, Enterococcus faecalis; set-up: unit not given here; settings: E. faecalis UCN41 (VanA positive, glycopeptide resistant), in duplicate
Procedure, shortened: as §1

[17] = system: S. aureus ATCC29213; experiment: MIC by microdilution, S. aureus ATCC29213; format: cell-based, Staphylococcus aureus; settings: S. aureus ATCC29213 (MecA negative, wild-type), Mueller-Hinton broth, in duplicate
Procedure, shortened: as §1

Row | SMILES | Minimal Inhibitory Concentration (MIC) [1] | antimicrobial / antibacterial activity (in words) [2] | Minimal Inhibitory Concentration (MIC) [3] | Minimal Inhibitory Concentration (MIC) [4] | Minimal Inhibitory Concentration (MIC) [5] | Minimal Inhibitory Concentration (MIC) [6] | Minimal Inhibitory Concentration (MIC) [7] | Minimal Inhibitory Concentration (MIC) [8] | Minimal Inhibitory Concentration (MIC) [9] | Minimal Inhibitory Concentration (MIC) [10] | Minimal Inhibitory Concentration (MIC) [11] | Minimal Inhibitory Concentration (MIC) [12] | Minimal Inhibitory Concentration (MIC) [13] | Minimal Inhibitory Concentration (MIC) [14] | Minimal Inhibitory Concentration (MIC) [15] | Minimal Inhibitory Concentration (MIC) [16] | Minimal Inhibitory Concentration (MIC) [17]
1 | CC[P+](CC)(CC)[Au-][c]1nn[nH]c1COC(=O)NCC(=O)O [TMB18] | ≤0.06 | have antimicrobial activity | 0.5 | ≤0.06 | >8 | ≤0.06 | 0.25 | 0.25 and 0.5 | 0.25 | ≤0.06 | ≤0.06 | 0.125 | 0.25 | 0.125 | 0.125 | 0.25 and 0.5 | 0.125
2 | CC[P+](CC)(CC)[Au-][c]1nn[nH]c1COC(=O)NC(C(=O)O)c1ccc(O)cc1 (centres unmarked) [TMB26] | ≤0.06 | have antimicrobial activity | 0.5 | ≤0.06 | >8 | 0.125 | 0.5 | 0.5 | 0.25 | ≤0.06 | ≤0.06 | 0.125 | 0.25 | 0.125 | 0.25 | 0.25 | 0.125
3 | CC[P+](CC)(CC)[Au-][c]1nn[nH]c1COC(=O)N[C@H](Cc1ccccc1)C(=O)O [TMB27] | 0.125 | have antimicrobial activity | 1 | ≤0.06 | >8 | 0.125 | 2 | 1 | 1 | 0.125 | ≤0.06 | 0.5 | 0.5 | 0.25 | 0.25 | 0.5 and 1 | 0.25 and 0.5
4 | CC[P+](CC)(CC)[Au-][c]1nn[nH]c1COC(=O)N1CCC[C@@H]1C(=O)O [TMB28] | 0.125 | have antimicrobial activity | 0.5 | ≤0.06 | >8 | 0.125 and 0.25 | 0.5 | 0.25 | 0.25 | 0.125 | ≤0.06 | 0.25 and 0.5 | 0.25 | 0.125 | 0.125 | 0.25 | 0.25

— US20210284668A1, “GOLD (I)-PHOSPHINE 1,2,3-TRIAZOLE DERIVATIVES WITH ANTIBIOTIC PROPERTIES” (Centre National de la Recherche Scientifique, priority 2018, published 2021)
